Reference: patent US11096985B2, “Antimicrobial peptides, their variants and uses” (priority 2015, dated 2021)
Where a SMILES comes first, the peptide text is derived from it. [ ]: non-standard residue; d: D form.

What was measured:
[1] = system: clinical strains of Escherichia coli; assay: MIC, clinical strains of E. coli; assay type: cell-based; design: unit: μg/ml; conditions: microdilution, Muller Hinton broth-cation adjusted, 0.02% BSA, 0.2% acetic acid
Method in brief: (§1)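 By broth microdilution, Chain peptides from 0.125 to 128 μg/ml were tested against clinical strains adjusted to 5.0×10^5 cfu/ml, with bacteria in MH broth and yeasts in Potato dextrose broth. After 20–24 h at 37 °C, the lowest peptide concentration without visible growth was scored as MIC.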

[2] = system: clinical strains of Klebsiella pneumoniae; assay: MIC, clinical strains of K. pneumoniae; assay type: cell-based; design: unit: μg/ml; conditions: microdilution, Muller Hinton broth-cation adjusted, 0.02% BSA, 0.2% acetic acid
Method in brief: as §1

[3] = system: clinical strains of Pseudomonas aeruginosa; assay: MIC, clinical strains of P. aeruginosa; assay type: cell-based; design: unit: μg/ml; conditions: microdilution, Muller Hinton broth-cation adjusted, 0.02% BSA, 0.2% acetic acid
Method in brief: as §1

[4] = system: clinical strains of Serratia marcescens; assay: MIC, clinical strains of Serratia marcescens; assay type: cell-based; design: unit: µg/mL; conditions: microdilution, Muller Hinton broth-cation adjusted, 0.02% BSA, 0.2% acetic acid
Method in brief: as §1

[5] = system: clinical strains of Proteus mirabilis; assay: MIC, clinical strains of Proteus mirabilis; assay type: cell-based; design: unit: µg/mL; conditions: microdilution, Muller Hinton broth-cation adjusted, 0.02% BSA, 0.2% acetic acid
Method in brief: as §1

[6] = system: clinical strains of Enterobacter cloacae; assay: MIC, clinical strains of Enterobacter cloacae; assay type: cell-based; design: unit: μg/ml; conditions: microdilution, Muller Hinton broth-cation adjusted, 0.02% BSA, 0.2% acetic acid
Method in brief: as §1

[7] = system: clinical strains of Staphylococcus aureus; assay: MIC, clinical strains of S. aureus; assay type: cell-based; design: unit: μg/ml; conditions: microdilution, Muller Hinton broth-cation adjusted, 0.02% BSA, 0.2% acetic acid
Method in brief: as §1

[8] = system: clinical strains of Streptococcus pneumoniae; assay: MIC, clinical strains of Streptococcus pneumoniae; assay type: cell-based; design: unit: µg/mL; conditions: microdilution, Muller Hinton broth-cation adjusted, 0.02% BSA, 0.2% acetic acid
Method in brief: as §1

[9] = system: clinical strains of Acinetobacter baumannii; assay: MIC, clinical strains of Acinetobacter baumannii; assay type: cell-based; conditions: microdilution, Muller Hinton broth-cation adjusted, 0.02% BSA, 0.2% acetic acid
Method in brief: as §1

[10] = system: clinical strains of Acinetobacter johnsonii; assay type: cell-based; conditions: Acinetobacter johnsonii clinical strain 1; microdilution, Muller Hinton broth-cation adjusted, 0.02% BSA, 0.2% acetic acid
Description: Minimum inhibition concentrations (MICs) were determined against Escherichia coli (ATCC 25922), Staphylococcus aureus (ATCC 25923), Klebsiella pneumoniae (ATCC 10031) and Pseudomonas aeruginosa (ATCC 27853). Also clinical strains of E. coli, K. pneumoniae, E. cloacae, P. aeruginosa, Serratia marcescens, Proteus mirabilis, S. pneumoniae, Acinetobacter baumannii, A. johnsonii and S. aureus were used for MICs assays. Additionally, clinical strains of yeast including Candida albicans, C. glabrata, C. parapsilosis and C. quillermondiae were used. The susceptibility of these microorganisms to Chain peptides were determined using micro broth dilution assay. Colonies of the respective microorganism from Muller Hinton (MH) agar plates incubated overnight were suspended in MH broth media and final concentration of microorganism was adjusted to 5.0×10^5 cfu/ml. An aliquot of 10 μl of each Chain peptide, or gentamicin, tetracycline as reference antibiotics were added in differing concentrations along with 90 μl of bacterial suspension to 96 well polypropylene plates and incubated at 37° C. for 20 to 24 hours. Concentrations of Chain peptides and reference antibiotics ranged from 0.125 to 128 μg/ml and the MICs were recorded as the lowest concentration with no visual growth of bacteria. Similarly, antifungal MICs were tested in Potato dextrose broth.
Clinical strains of yeasts including Candida albicans, C. glabrata, C. parapsilosis and C. quillermondiae were also tested with the 12 Chain peptides. The minimum inhibitory concentration (MICs) varied between these peptides and are presented in Tables 4a, 4b, 4c and 5a, 5b, 5c. Peptides Chain 105, 201 and 308 are broad spectrum antimicrobials with MICs between 0.5-32 μg/ml against all the bacteria and yeasts tested, except Serratia marcescens and Proteus mirabilis, against which the MICs were between 64-128 μg/ml. Peptide Chain 306 has narrow spectrum activity against E.coli at 1 μg/ml and for the rest of the bacterial strains at >32 μg/ml (FIG. 10).

[11] = system: clinical strains of Candida albicans; assay: MIC, clinical yeast strains, Candida albicans; assay type: cell-based; design: unit: μg/ml
Method in brief: as §1

[12] = system: clinical strains of C. glabrata; assay: MIC, clinical yeast strains, C. glabrata; assay type: cell-based, Candida glabrata; design: unit: μg/ml
Method in brief: as §1

[13] = system: clinical strains of C. parapsilosis; assay: MIC, clinical yeast strains, C. parapsilosis; assay type: cell-based, Candida parapsilosis; design: unit: μg/ml
Method in brief: as §1

[14] = system: clinical strains of C. quillermondiae; assay: MIC, clinical yeast strains, C. quillermondiae; assay type: cell-based; conditions: C. quillermondiae clinical yeast strain 1
Method in brief: as §1

CC(C)C[C@@H](NC(=O)[C@H](N)CCCNC(=N)N)C(=O)N[C@H](CCCCN)C(=O)N[C@H](CCCNC(=N)N)C(=O)N[C@H](Cc1c[nH]c2ccccc12)C(=O)N[C@H](CCCNC(=N)N)C(=O)N[C@H](CC(C)C)C(=O)N[C@H](Cc1ccccc1)C(=O)N[C@H](CCCNC(=N)N)C(=O)N[C@H](CCCCN)C(=O)N[C@H](CCCNC(=N)N)C(=O)O [Chain306D] (H-[dR][dL][dK][dR][dW][dR][dL][dF][dR][dK][dR]-OH)
Minimum inhibitory concentration ([1]; Escherichia coli clinical strain 1): 1
Minimum inhibitory concentration ([1]; Escherichia coli clinical strain 2): 2
Minimum inhibitory concentration ([1]; Escherichia coli clinical strain 3): 2
Minimum inhibitory concentration ([1]; Escherichia coli clinical strain 4): 2
Minimum inhibitory concentration ([1]; Escherichia coli clinical strain 5): 2
Minimum inhibitory concentration ([2]; Klebsiella pneumoniae clinical strain 1): 128
Minimum inhibitory concentration ([2]; Klebsiella pneumoniae clinical strain 2): >128
Minimum inhibitory concentration ([2]; Klebsiella pneumoniae clinical strain 3): >128
Minimum inhibitory concentration ([2]; Klebsiella pneumoniae clinical strain 4): 64
Minimum inhibitory concentration ([2]; Klebsiella pneumoniae clinical strain 5): 64
Minimum inhibitory concentration ([3]; Pseudomonas aeruginosa clinical strain 1): 128
Minimum inhibitory concentration ([3]; Pseudomonas aeruginosa clinical strain 2): >128
Minimum inhibitory concentration ([3]; Pseudomonas aeruginosa clinical strain 3): 128
Minimum inhibitory concentration ([3]; Pseudomonas aeruginosa clinical strain 4): >128
Minimum inhibitory concentration ([3]; Pseudomonas aeruginosa clinical strain 5): 128
Minimum inhibitory concentration ([4]; Serratia marcescens clinical strain 1): >128
Minimum inhibitory concentration ([4]; Serratia marcescens clinical strain 2): >128
Minimum inhibitory concentration ([4]; Serratia marcescens clinical strain 3): >128
Minimum inhibitory concentration ([4]; Serratia marcescens clinical strain 4): >128
Minimum inhibitory concentration ([4]; Serratia marcescens clinical strain 5): >128
Minimum inhibitory concentration ([5]; Proteus mirabilis clinical strain 1): >128
Minimum inhibitory concentration ([5]; Proteus mirabilis clinical strain 2): >128
Minimum inhibitory concentration ([5]; Proteus mirabilis clinical strain 3): >128
Minimum inhibitory concentration ([5]; Proteus mirabilis clinical strain 4): >128
Minimum inhibitory concentration ([5]; Proteus mirabilis clinical strain 5): >128
Minimum inhibitory concentration ([6]; Enterobacter cloacae clinical strain 1): 64
Minimum inhibitory concentration ([6]; Enterobacter cloacae clinical strain 2): 64
Minimum inhibitory concentration ([6]; Enterobacter cloacae clinical strain 3): 32
Minimum inhibitory concentration ([6]; Enterobacter cloacae clinical strain 4): 16
Minimum inhibitory concentration ([6]; Enterobacter cloacae clinical strain 5): 16
Minimum inhibitory concentration ([7]; Staphylococcus aureus clinical strain 1): 16
Minimum inhibitory concentration ([7]; Staphylococcus aureus clinical strain 2): 32
Minimum inhibitory concentration ([7]; Staphylococcus aureus clinical strain 3): 32
Minimum inhibitory concentration ([7]; Staphylococcus aureus clinical strain 4): 16
Minimum inhibitory concentration ([7]; Staphylococcus aureus clinical strain 5): 8
Minimum inhibitory concentration ([8]; Streptococcus pneumoniae clinical strain 1): 64
Minimum inhibitory concentration ([8]; Streptococcus pneumoniae clinical strain 2): 64
Minimum inhibitory concentration ([8]; Streptococcus pneumoniae clinical strain 3): 64
Minimum inhibitory concentration ([8]; Streptococcus pneumoniae clinical strain 4): 128
Minimum inhibitory concentration ([8]; Streptococcus pneumoniae clinical strain 5): 64
Minimum inhibitory concentration ([9]; Acinetobacter baumannii clinical strain 1): 16
Minimum inhibitory concentration ([9]; Acinetobacter baumannii clinical strain 2): 32
Minimum inhibitory concentration ([9]; Acinetobacter baumannii clinical strain 3): 16
Minimum inhibitory concentration ([9]; Acinetobacter baumannii clinical strain 4): 16
Minimum inhibitory concentration ([9]; Acinetobacter baumannii clinical strain 5): 8
Minimum inhibitory concentration [10]: 16
Minimum inhibitory concentration ([11]; Candida albicans clinical yeast strain 1): 16
Minimum inhibitory concentration ([11]; Candida albicans clinical yeast strain 2): 8
Minimum inhibitory concentration ([11]; Candida albicans clinical yeast strain 3): 8
Minimum inhibitory concentration ([11]; Candida albicans clinical yeast strain 4): 16
Minimum inhibitory concentration ([11]; Candida albicans clinical yeast strain 5): 16
Minimum inhibitory concentration ([12]; C. glabrata clinical yeast strain 1): 8
Minimum inhibitory concentration ([12]; C. glabrata clinical yeast strain 2): 8
Minimum inhibitory concentration ([12]; C. glabrata clinical yeast strain 3): 16
Minimum inhibitory concentration ([12]; C. glabrata clinical yeast strain 4): 32
Minimum inhibitory concentration ([13]; C. parapsilosis clinical yeast strain 1): 8
Minimum inhibitory concentration ([13]; C. parapsilosis clinical yeast strain 2): 16
Minimum inhibitory concentration ([13]; C. parapsilosis clinical yeast strain 3): 16
Minimum inhibitory concentration ([13]; C. parapsilosis clinical yeast strain 4): 4
Minimum inhibitory concentration [14]: 4
